The subject of test [1] is Mycosphaerella graminicola; Anamorph: Septoria tritici. Kind of test: Leaf Blotch of Wheat (SEPTTR) disease control. It counts as in vivo. The following applies: Zymoseptoria tritici; for pest or weed control at 100 ppm: rate 100 ppm; for pest or weed control at 121.5 g/ha: rate 121.5 g/H. Summed up: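 Seedlings of variety Yuma grew until the first leaf fully emerged. Fungicide solution (acetone/water with Triton X-100) was sprayed to run-off; plants were inoculated with S. tritici spores before or after spraying, held one day dark and two to three days lit at 100% humidity, then kept at 20° C.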

Test [2] relates to Puccinia triticina; Synonym: Puccinia recondite f. Sp. Tritici. Nature of the test: Wheat Brown Rust (PUCCRT) disease control. It counts as in vivo. The following applies: Puccinia triticina, topical; for pest or weed control at 100 ppm: rate 100 ppm; for pest or weed control at 121.5 g/ha: rate 121.5 g/H. A digest of the protocol: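 Brown rust on first-leaf Yuma wheat: spore inoculation before or after spray application (acetone/Triton X-100 solution, or EC with Trycol in track spray), overnight 100% RH at 22 °C, disease developed at 24 °C. Severity scored 0–100% and converted to percent control against untreated.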

The mark [3] stands for this setting: 24 h, 1 Day Protectant, read-out: SEPTTR 1 DP disease control.
[4] abbreviates: 72 h, 3 Day Curative, read-out: SEPTTR 3 DC disease control.
Where [5] appears, read: 24 h, 1 Day Protectant, read-out: PUCCRT 1 DP disease control.
[6] abbreviates: 72 h, 3 Day Curative, read-out: PUCCRT 3 DC disease control.

The values that follow come from patent publication US9265253B2, “Use of macrocyclic picolinamides as fungicides” (DOW AGROSCIENCES LLC, priority 2013, dated 2016).

Where two headings read alike, the source gives them in different places.

On to `CCOCC(=O)Oc1c(OC)ccnc1C(=O)N[C@H]1CCC[C@H](CCOC)[C@@H](OCC(C)C)[C@H](C)OC1=O` [Compound F188], for which the pest or weed control at 100 ppm in test [1] (setting [3]), in test [1] (setting [4]), in test [2] (setting [5]) and in test [2] (setting [6]) was 80 to 100% throughout. The pest or weed control at 121.5 g/ha in test [1] (setting [3]), in test [1] (setting [4]), in test [2] (setting [5]) and in test [2] (setting [6]) was 80 to 100% in each case.
On to `COc1ccnc(C(=O)N[C@H]2CCC[C@H](CCOc3ccccc3)[C@@H](OCC3CC3)[C@H](C)OC2=O)c1O` [Compound F57], for which the pest or weed control at 100 ppm in test [1] (setting [3]) is 80 to 100%; in test [1] (setting [4]), 0 to 80%; in test [2] (setting [5]) it was 80 to 100%; in test [2] (setting [6]), 80 to 100%.
With `COc1ccnc(C(=O)N[C@H]2CCC[C@H](CCBr)[C@@H](Oc3ccccc3)[C@H](C)OC2=O)c1OCOC(C)=O` [Compound F135], the pest or weed control at 100 ppm in test [1] (setting [3]), in test [1] (setting [4]), in test [2] (setting [5]) and in test [2] (setting [6]) was 80 to 100% in each case.
In the case of `COc1ccnc(C(=O)N[C@H]2CCC[C@H](CC3CCCC3)[C@@H](OCC3CC3)[C@H](C)OC2=O)c1O` [Compound F31], the pest or weed control at 100 ppm in test [1] (setting [3]), in test [1] (setting [4]), in test [2] (setting [5]) and in test [2] (setting [6]) was 80 to 100% throughout.
Regarding `CCOCC(=O)OCOc1c(OC)ccnc1C(=O)N[C@H]1CCC[C@H](CCOc2ccccc2)[C@@H](Oc2ccccc2)[C@H](C)OC1=O` [Compound F182], the pest or weed control at 100 ppm in test [1] (setting [3]), in test [1] (setting [4]), in test [2] (setting [5]) and in test [2] (setting [6]) was 80 to 100% each time. Moreover, the pest or weed control at 121.5 g/ha in test [1] (setting [3]) fell in the range of 80 to 100%; in test [1] (setting [4]), 80 to 100%; in test [2] (setting [5]), 80 to 100%; in test [2] (setting [6]) it was 0 to 80%.
For the compound `COc1ccnc(C(=O)N[C@H]2CCC[C@H](CCBr)[C@@H](Oc3ccccc3)[C@H](C)OC2=O)c1O` [Compound F50], the pest or weed control at 100 ppm in test [1] (setting [3]), in test [1] (setting [4]), in test [2] (setting [5]) and in test [2] (setting [6]) was 80 to 100% throughout.
Consider `COc1ccnc(C(=O)N[C@H]2CCC[C@H](CCC(C)C)[C@@H](OCCCC(F)(F)F)[C@H](C)OC2=O)c1OC(C)=O` [Compound F65], for which the pest or weed control at 100 ppm in test [1] (setting [3]), in test [1] (setting [4]), in test [2] (setting [5]) and in test [2] (setting [6]) was 80 to 100% throughout. The pest or weed control at 121.5 g/ha in test [1] (setting [3]) was 80 to 100%; in test [1] (setting [4]), 80 to 100%; in test [2] (setting [5]), 80 to 100%; in test [2] (setting [6]), 0 to 80%.
Take `COc1ccnc(C(=O)N[C@H]2CCC[C@H](CC3CCCC3)[C@@H](Oc3ccccc3)[C@H](C)OC2=O)c1OCOC(C)=O` [Compound F115]: the pest or weed control at 100 ppm in test [1] (setting [3]), in test [1] (setting [4]), in test [2] (setting [5]) and in test [2] (setting [6]) was 80 to 100% each time. Besides, the pest or weed control at 121.5 g/ha in test [1] (setting [3]) lay within 80 to 100%; in test [1] (setting [4]), 80 to 100%; in test [2] (setting [5]), 80 to 100%; in test [2] (setting [6]), 0 to 80%.
Regarding `COc1ccnc(C(=O)N[C@H]2CCC[C@H](Cc3ccc(F)cc3)[C@@H](OCC(C)C)[C@H](C)OC2=O)c1O` [Compound F14], the pest or weed control at 100 ppm in test [1] (setting [3]), in test [1] (setting [4]), in test [2] (setting [5]) and in test [2] (setting [6]) was 80 to 100% each time.
Regarding `CCOCC(=O)Oc1c(OC)ccnc1C(=O)N[C@H]1CCC[C@H](CCOc2ccccc2)[C@@H](Oc2ccccc2)[C@H](C)OC1=O` [Compound F185], the pest or weed control at 100 ppm in test [1] (setting [3]), in test [1] (setting [4]), in test [2] (setting [5]) and in test [2] (setting [6]) was 80 to 100% in each case.
As to `CCCO[C@@H]1[C@@H](CC2CCCC2)CCC[C@H](NC(=O)c2nccc(OC)c2OCOC(C)=O)C(=O)O[C@H]1C` [Compound F122], the pest or weed control at 100 ppm in test [1] (setting [3]), in test [1] (setting [4]), in test [2] (setting [5]) and in test [2] (setting [6]) was 80 to 100% each time. Also, the pest or weed control at 121.5 g/ha in test [1] (setting [3]), in test [1] (setting [4]), in test [2] (setting [5]) and in test [2] (setting [6]) was 80 to 100% throughout.
As for `COc1ccnc(C(=O)N[C@H]2CCC[C@H](CCC(C)C)[C@@H](OC)[C@H](C)OC2=O)c1OCOC(C)=O` [Compound F95], the pest or weed control at 100 ppm in test [1] (setting [3]), in test [1] (setting [4]), in test [2] (setting [5]) and in test [2] (setting [6]) was 80 to 100% throughout. The pest or weed control at 121.5 g/ha in test [1] (setting [3]) was in the range of 80 to 100%; in test [1] (setting [4]), 0 to 80%; in test [2] (setting [5]), 80 to 100%; in test [2] (setting [6]), 0 to 80%.
Consider `COCC[C@H]1CCC[C@H](NC(=O)c2nccc(OC)c2O)C(=O)O[C@@H](C)[C@@H]1Oc1ccccc1` [Compound F45], for which the pest or weed control at 100 ppm in test [1] (setting [3]), in test [1] (setting [4]), in test [2] (setting [5]) and in test [2] (setting [6]) was 80 to 100% in each case.
For the compound `COc1ccc(C[C@H]2CCC[C@H](NC(=O)c3nccc(OC)c3O)C(=O)O[C@@H](C)[C@@H]2OCC2CC2)cc1` [Compound F30], the pest or weed control at 100 ppm in test [1] (setting [3]), in test [1] (setting [4]), in test [2] (setting [5]) and in test [2] (setting [6]) was 80 to 100% each time.
As to `CCCO[C@@H]1[C@@H](CCC(C)C)CCC[C@H](NC(=O)c2nccc(OC)c2O)C(=O)O[C@H]1C` [Compound F4], the pest or weed control at 100 ppm in test [1] (setting [3]), in test [1] (setting [4]), in test [2] (setting [5]) and in test [2] (setting [6]) was 80 to 100% in each case.
In the case of `COc1ccnc(C(=O)N[C@H]2CCC[C@H](Cc3ccc(F)cc3F)[C@@H](OCc3ccccc3)[C@H](C)OC2=O)c1OCOC(C)=O` [Compound F137], the pest or weed control at 100 ppm in test [1] (setting [3]), in test [1] (setting [4]), in test [2] (setting [5]) and in test [2] (setting [6]) was 80 to 100% throughout. Besides, the pest or weed control at 121.5 g/ha in test [1] (setting [3]) was 80 to 100%; in test [1] (setting [4]), 80 to 100%; in test [2] (setting [5]), 80 to 100%; in test [2] (setting [6]), 0 to 80%.
In the case of `COCCO[C@@H]1[C@@H](Cc2ccccc2)CCC[C@H](NC(=O)c2nccc(OC)c2O)C(=O)O[C@H]1C` [Compound F24], the pest or weed control at 100 ppm in test [1] (setting [3]), in test [1] (setting [4]), in test [2] (setting [5]) and in test [2] (setting [6]) was 80 to 100% each time.
`COc1ccnc(C(=O)N[C@H]2CCC[C@H](CCC(C)C)[C@@H](Oc3ccccc3)[C@H](C)OC2=O)c1OC(C)=O` [Compound F62]: the pest or weed control at 100 ppm in test [1] (setting [3]), in test [1] (setting [4]), in test [2] (setting [5]) and in test [2] (setting [6]) was 80 to 100% throughout. The pest or weed control at 121.5 g/ha in test [1] (setting [3]) fell in the range of 80 to 100%; in test [1] (setting [4]), 80 to 100%; in test [2] (setting [5]), 80 to 100%; in test [2] (setting [6]) it was 0 to 80%.
Turning to `CCCO[C@@H]1[C@@H](Cc2ccc(F)cc2)CCC[C@H](NC(=O)c2nccc(OC)c2O)C(=O)O[C@H]1C` [Compound F13], the pest or weed control at 100 ppm fell in the range of 80 to 100% in test [1] (setting [3]), 80 to 100% in test [1] (setting [4]) and 0 to 80% in test [2] (setting [6]).
On to `C=CCO[C@@H]1[C@@H](Cc2ccc(F)cc2)CCC[C@H](NC(=O)c2nccc(OC)c2OCOC(C)=O)C(=O)O[C@H]1C` [Compound F100], for which the pest or weed control at 100 ppm in test [1] (setting [3]), in test [1] (setting [4]), in test [2] (setting [5]) and in test [2] (setting [6]) was 80 to 100% in each case. Moreover, the pest or weed control at 121.5 g/ha in test [1] (setting [3]) was 80 to 100%; in test [1] (setting [4]), 80 to 100%; in test [2] (setting [5]), 80 to 100%; in test [2] (setting [6]), 0 to 80%.
Turning to `COc1ccnc(C(=O)N[C@H]2CCC[C@@H]3CCO[C@H]3[C@H](C)OC2=O)c1OCOC(C)=O` [Compound F143], the pest or weed control at 100 ppm was in the range of 0 to 80% in test [1] (setting [3]), 0 to 80% in test [1] (setting [4]), 80 to 100% in test [2] (setting [5]) and 80 to 100% in test [2] (setting [6]). Also, the pest or weed control at 121.5 g/ha is 0 to 80% in test [1] (setting [3]), 80 to 100% in test [2] (setting [5]) and 80 to 100% in test [2] (setting [6]).
